From US9938273B2 (Plexxikon Inc., priority 2015, dated 2018)

Legend:
FLT3-ITD = molecular target: T1, FLT3-ITD (Homo sapiens, UniProt P36888); assay: AlphaScreen kinase assay with recombinant enzyme, FLT3-ITD; assay type: biochemical; conditions: 8pt; read-out: FLT3_ITD 8pt: IC50
T1 sequence (P36888 1-993): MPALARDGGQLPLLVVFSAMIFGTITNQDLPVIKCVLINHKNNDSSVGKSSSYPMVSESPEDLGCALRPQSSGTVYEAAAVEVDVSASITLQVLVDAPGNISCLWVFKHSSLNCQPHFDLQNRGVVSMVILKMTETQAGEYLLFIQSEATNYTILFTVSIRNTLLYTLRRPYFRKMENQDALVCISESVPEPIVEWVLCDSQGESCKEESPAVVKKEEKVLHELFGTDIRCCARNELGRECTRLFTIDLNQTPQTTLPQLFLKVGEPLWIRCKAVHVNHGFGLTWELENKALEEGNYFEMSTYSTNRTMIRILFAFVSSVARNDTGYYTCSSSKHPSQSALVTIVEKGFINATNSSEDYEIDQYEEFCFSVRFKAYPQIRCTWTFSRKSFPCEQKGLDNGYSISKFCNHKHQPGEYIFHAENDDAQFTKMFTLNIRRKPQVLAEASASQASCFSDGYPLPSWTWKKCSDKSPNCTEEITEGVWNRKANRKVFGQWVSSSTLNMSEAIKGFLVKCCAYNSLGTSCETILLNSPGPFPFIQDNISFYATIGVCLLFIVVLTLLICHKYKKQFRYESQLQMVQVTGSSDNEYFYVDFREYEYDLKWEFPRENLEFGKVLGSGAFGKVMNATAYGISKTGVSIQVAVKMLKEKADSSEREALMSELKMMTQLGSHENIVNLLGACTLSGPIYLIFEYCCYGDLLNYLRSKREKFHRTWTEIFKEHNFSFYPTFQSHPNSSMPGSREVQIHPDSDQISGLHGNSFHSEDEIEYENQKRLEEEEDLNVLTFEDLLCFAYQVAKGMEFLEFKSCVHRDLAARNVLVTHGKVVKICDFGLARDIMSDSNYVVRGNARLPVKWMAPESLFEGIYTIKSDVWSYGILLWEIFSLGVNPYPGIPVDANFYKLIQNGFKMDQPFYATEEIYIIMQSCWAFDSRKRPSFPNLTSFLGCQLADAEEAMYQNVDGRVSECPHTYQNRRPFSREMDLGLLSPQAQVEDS
Procedure, shortened: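 Read-out: AlphaScreen proximity signal at 580 nm (680 nm excitation), lost as peptide tyrosine phosphorylation falls. Substrate Biotin-GG(EEEEY)10EE at 30 nM; IC50 runs at 10 μM (FLT3 mutants) or 100 μM (c-KIT) final. Donor beads 20 min, then acceptor beads 60 min, room temperature.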

[1] = test system: MOLM-14 D835Y cells, FLT3 ITD and FLT3 D835Y; assay: Cell proliferation assay (CellTiter-Glo), MOLM-14 D835Y; assay type: cell-based; conditions: Homo sapiens, 72 h, 3d-Growth, GMean
Procedure, shortened: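 Three-day growth at 37 °C, 5% CO2 under compound (1 μM top final, 1:3 dilutions, eight points, 0.2% DMSO), read as ATP luminescence by CellTiter-Glo for IC50. Cells: MOLM-14 with FLT3 ITD plus D835Y or F691L, and IL-3-deprived Ba/F3 transfected with FLT3 ITD/D835Y, 1×10^4 per well.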

Row | Structure (SMILES) | IC50 (FLT3-ITD) | IC50 [1]
1 | CC(C)(C#N)NC(=O)c1cccc(-c2cnc3[nH]c(-c4ccc(C5CC5)nc4)cc3c2)n1 [Compound P-0168, N-(1-cyano-1-methyl-ethyl)-6-[2-(6-cyclopropyl-3-pyridyl)-1H-pyrrolo[2,3-b]pyridin-5-yl]pyridine-2-carboxamide] | 0.0001 to 10 µM | 0.0001 to 10 µM
2 | Cc1nc(C(C)C)sc1-c1cc2cc(-c3cccc(C(=O)NC(C)(C)C#N)n3)cnc2[nH]1 [Compound P-0169, N-(1-cyano-1-methyl-ethyl)-6-[2-(2-isopropyl-4-methyl-thiazol-5-yl)-1H-pyrrolo[2,3-b]pyridin-5-yl]pyridine-2-carboxamide] | 0.0001 to 10 µM | 0.0001 to 10 µM
3 | CC(C)(C#N)NC(=O)c1cccc(-c2cnc3[nH]c(-c4cnn(CCC#N)c4)cc3c2)n1 [Compound P-0170, 6-[2-[1-(2-cyanoethyl)pyrazol-4-yl]-1H-pyrrolo[2,3-b]pyridin-5-yl]-N-(1-cyano-1-methyl-ethyl)pyridine-2-carboxamide] | 0.0001 to 10 µM | 0.0001 to 10 µM
4 | CC(C)(C#N)NC(=O)c1cccc(-c2cnc3[nH]c(-c4cnn(Cc5ccccc5)c4)cc3c2)n1 [Compound P-0171, 6-[2-(1-benzylpyrazol-4-yl)-1H-pyrrolo[2,3-b]pyridin-5-yl]-N-(1-cyano-1-methyl-ethyl)pyridine-2-carboxamide] | 0.0001 to 10 µM | 0.0001 to 10 µM
5 | COCCn1cc(-c2cc3cc(-c4cccc(C(=O)NC(C)(C)C#N)n4)cnc3[nH]2)cn1 [Compound P-0172, N-(1-cyano-1-methyl-ethyl)-6-[2-[1-(2-methoxyethyl)pyrazol-4-yl]-1H-pyrrolo[2,3-b]pyridin-5-yl]pyridine-2-carboxamide] | 0.0001 to 10 µM | 0.0001 to 10 µM
6 | CC(C)(C#N)NC(=O)c1cccc(-c2cnc3[nH]c(-c4cnn(C5CCOC5)c4)cc3c2)n1 (stereo not drawn) [Compound P-0173, N-(1-cyano-1-methyl-ethyl)-6-[2-(1-tetrahydrofuran-3-ylpyrazol-4-yl)-1H-pyrrolo[2,3-b]pyridin-5-yl]pyridine-2-carboxamide] | 0.0001 to 10 µM | 0.0001 to 10 µM
7 | CC(C)(C#N)NC(=O)c1cccc(-c2cnc3[nH]c(-c4cnn(CCN5CCOCC5)c4)cc3c2)n1 [Compound P-0174, N-(1-cyano-1-methyl-ethyl)-6-[2-[1-(2-morpholinoethyl)pyrazol-4-yl]-1H-pyrrolo[2,3-b]pyridin-5-yl]pyridine-2-carboxamide] | 0.0001 to 10 µM | 0.0001 to 10 µM
8 | C#Cc1cc2cc(-c3cccc(C(=O)NC(C)(C)C#N)n3)cnc2[nH]1 [Compound P-0175, N-(1-cyano-1-methyl-ethyl)-6-(2-ethynyl-1H-pyrrolo[2,3-b]pyridin-5-yl)pyridine-2-carboxamide] | 0.0001 to 10 µM | 0.0001 to 10 µM
9 | CC(C)(C#N)NC(=O)c1cccc(-c2cnc3[nH]c(C#Cc4ccccc4)cc3c2)n1 [Compound P-0176, N-(1-cyano-1-methyl-ethyl)-6-[2-(2-phenylethynyl)-1H-pyrrolo[2,3-b]pyridin-5-yl]pyridine-2-carboxamide] | 0.0001 to 10 µM | 0.0001 to 10 µM
10 | Cn1cncc1C#Cc1cc2cc(-c3cccc(C(=O)NC(C)(C)C#N)n3)cnc2[nH]1 [Compound P-0177, N-(1-cyano-1-methyl-ethyl)-6-[2-[2-(3-methylimidazol-4-yl)ethynyl]-1H-pyrrolo[2,3-b]pyridin-5-yl]pyridine-2-carboxamide] | 0.0001 to 10 µM | 0.0001 to 10 µM
11 | Cc1nn(C(C)C)cc1-c1cc2cc(-c3cccc(C(=O)NC(C)(C)C#N)n3)cnc2[nH]1 [Compound P-0178, N-(1-cyano-1-methyl-ethyl)-6-[2-(1-isopropyl-3-methyl-pyrazol-4-yl)-1H-pyrrolo[2,3-b]pyridin-5-yl]pyridine-2-carboxamide] | 0.0001 to 10 µM | 0.0001 to 10 µM
12 | CC(C)(NC(=O)c1cccc(-c2cnc3[nH]c(C4=CCN(C(=O)C5CC5)C4)cc3c2)n1)C(N)=O [Compound P-0179, N-(2-amino-1,1-dimethyl-2-oxo-ethyl)-6-[2-[1-(cyclopropanecarbonyl)-2,5-dihydropyrrol-3-yl]-1H-pyrrolo[2,3-b]pyridin-5-yl]pyridine-2-carboxamide] | 0.0001 to 10 µM | 0.0001 to 10 µM
